Experiment: Saturation of dye in decane (solubility)
Format: physicochemical
Conditions: saturated solution in decane

SMILES | Saturation wt % in decane [wt %]
CCCCCCCCCCCCCCCCCCN(CCCCCCCCCCCCCCCCCC)c1cc(NC(C)=O)c(/N=N/c2c(C#N)cc([N+](=O)[O-])cc2C#N)cc1OC [Dye 1] | 0.003
CCCCCCCCN(CCCCCCCC)c1ccc(/N=N/c2snc(C)c2C#N)c(NC(C)=O)c1 [Dye 4, N-(2-((4-Cyano-3-methylisothiazol-5-yl)diazenyl)-5-(dioctylamino)phenyl)acetamide] | 0.19
CCCCCCCCCCCCCCc1ccc(/N=N/c2c(C)c(C#N)c(=O)n(CC(CC)CCCC)c2O)cc1 (stereo not drawn) [Dye 5, (E)-1-(2-Ethylhexyl)-6-hydroxy-4-methyl-2-oxo-5-((4-tetradecylphenyl)diazenyl)-1,2-dihydropyridine-3-carbonitrile] | 1.03
CCCCCCCCCCCCCCc1ccc(/N=N/c2c(C)cc(=O)n(CC(CC)CCCC)c2O)cc1 (stereo not drawn) [Dye 6, (E)-1-(2-ethylhexyl)-6-hydroxy-4-methyl-5-((4-tetradecylphenyl)diazenyl)pyridin-2(1H)-one] | 3.72
CCCCc1ccc(/N=N/c2ccc(N(CCCC)CCCC)cc2)cc1 [Dye 7] | 9.95
CCCCCCCCN(CCCCCCCC)c1ccc(/N=N/c2ccc([N+](=O)[O-])cc2)c(C)c1 [Dye 8, (E)-3-Methyl-4-((4-nitrophenyl)diazenyl)-N,N-dioctylaniline] | 10.50
